Data as given in paper PMC4304288, “Function through bio-inspired, synthesis-informed design: step-economical syntheses of designed kinase inhibitors” (Organic Chemistry Frontiers, 2014).

System: PKCβ
Test: not given
Conditions: cited from earlier work

Structure (SMILES)	selectivity for PKCβ over PKCα [fold]
Cn1cc(C2=C(c3cn(C4CCN(Cc5ccccn5)CC4)c4ccccc34)C(=O)NC2=O)c2ccccc21 [enzastaurin]	26
CN(C)C[C@@H]1CCn2cc(c3ccccc32)C2=C(C(=O)NC2=O)c2cn(c3ccccc23)CCO1 [ruboxistaurin]	60

System: PKC (rat brain mixture)
Test: PKC inhibition assay (protocol of Kikkawa, [γ-32P]ATP, histone)
Type: biochemical
Conditions: rat brain mixture of PKC isoforms
Method: Our initial analogs were tested for inhibition of PKC[37],[38] (rat brain mixture) due to its clinical significance and our on-going and complementary work on PKC activators.[7b],[16],[26]
Simplified analog 19 was tested in the PKC inhibition assay using the rat brain mixture of PKC isoforms. […]. Computational docking[42] of the energy-minimized conformer of 19 in the computer-simulated ATP-binding pocket of PKCα (Fig. 3) illustrates the conserved hydrogen bonds between the maleimide and hinge region residues and the shape complementarity of the ligand with the pocket.
A PKC inhibition assay was performed following the protocol developed by Kikkawa and coworkers.5 The assay can be scaled as desired. Histone solution (0.33 mg/mL in 20 mM Tris buffer) was prepared from a stock solution (33 mg/mL, stored frozen). Phosphatidylserine (PS) vesicles were prepared by the addition of PS (10 mg/mL in chloroform, 240 µL) and dioleoylglycerol (10 mg/mL in ethanol, 40 µL) to a glass vial followed by removal of the chloroform under a stream of nitrogen. To the neat PS was added chilled 20 mM Tris assay buffer (2 mL) and the resulting mixture was sonicated (Branson Sonifier 250, power = 3, 30% duty cycle) four times for 30 sec with a 30 sec interval between sonications. The resulting milky suspension was stored on ice. "Stop" solution refers to a solution of 200 mM EDTA and 200 mM ATP in 20 mM Tris buffer.
Whatman filter papers were cut in 1 x 1 inches in dimension and labeled with tube number in pencil. An "Autogo" solution was prepared by mixing 27 µL of 3.75 mM ATP (in 20 mM Tris), 100 µL of 1.0 M MgCl2, 872 µL of 20 mM Tris buffer, and 1.3 µL of [γ-32P] ATP (total volume is 1 mL). "Autogo" solution should be kept in the hot hood all the time. "Cocktail 1" was prepared by mixing 70 µL of 10 mM Ca2+, 350 µL of 20 mM Tris, and 70 µL of histone solution (0.33 mg/mL in 20mM Tris). "Cocktail 2" was prepared by mixing 310 µL of 10 mM Ca2+, 930 µL of 20 mM Tris, 310 µL of the histone solution, and 310 µL of the PS solution (added only once the assay is ready to be run).
To each eppendorf tube, 10 µL of PKC solution and10 µL of the inhibitor solution were added. After addition of the inhibitor, each tube was vortexed. For negative controls, 70 µL of cocktail 1 was added to tubes 1 and 2. To the rest of the tubes were added 60 µL of cocktail 2. All the tubes were then transferred to the hot hood, and 20 µL of "Autogo" solution was added to each tube and vortexed immediately. A start countdown of 7 min was initiated when "Autogo" was added to the first tube. Addition to all the tubes should be completed within 7 min. When the countdown is over, "Stop" solution was added to each tube and vortexed. The interval between the addition of "Autogo" and "Stop" solution should be 7 min for each tube.
Contents of each tube was transferred to the piece of pre-labeled Whatman filter paper and the paper was washed by soaking them and swirling in a beaker filled with 300 mL of tap water. Once all the filter papers are soaked in the beaker, the supernatant was carefully drained (to the hot hood drain) and the papers were rinsed by soaking them in 300 mL of fresh tap water for 2 min. The water was decanted, and the papers were rinsed by soaking them in 300 mL of ethanol for 2 min. The ethanol should be recovered to a bottle in the hot hood (not to the drain). The papers were dried in the hot hood and each paper was transferred to a scintillation vial. The radiation was measured with the scintillation counter (Beckman LS 6000SC). The data set was analyzed using a least-square data-fitting algorithm in Prism 4 (Graphpad Software Inc.) to give an IC50 value (defined as the concentration of analogue required to inhibit 50% of PKC activity).

Structure (SMILES)	IC50 [µM]
NCCCn1c2ccc(Cl)cc2c2c3c(c4c(c21)CCC(O)CC4)C(=O)NC3=O (centres unmarked) [Compound 10]	2.6
NCCCn1c2ccc(Cl)cc2c2c3c(c4c(c21)CCC(N)CC4)C(=O)NC3=O (centres unmarked) [Compound 11]	12.5
CNC1CCc2c3c(c4c5cc(Cl)ccc5n(CCCN)c4c2CC1)C(=O)NC3=O (centres unmarked) [Compound 12]	14.1

Results, then the molecule that gave them:

IC50 [µM]	Structure (SMILES)
2.9	CN(C)C1CCc2c3c(c4c5cc(Cl)ccc5n(CCCN)c4c2CC1)C(=O)NC3=O (centres unmarked) [Compound 13]
1.6	CN(C)C1CCc2c3c(c4c5ccccc5n(CCCN)c4c2CC1)C(=O)NC3=O (centres unmarked) [Compound 14]
0.013	CN(C)C1CCc2c(CC3CCNCC3)cc3c(c2CC1)C(=O)NC3=O (centres unmarked) [Compound 19]
